# Experimental data reported in ChEMBL document CHEMBL1127610, “Synthesis and atypical antipsychotic profile of some 2-(2-piperidinoethyl)benzocycloalkanones as analogues of butyrophenone” (J Med Chem, 1994).
# Legend:
# [1] = biological target: 5-hydroxytryptamine receptor 2A (Rattus norvegicus, UniProt P14842); test: Inhibition of [3H]ketanserin binding to 5-hydroxytryptamine 2A receptor rat frontal cortex membrane; type: tissue-based
# D(1A) dopamine receptor = D(1A) dopamine receptor (Rattus norvegicus, UniProt P18901); test: Inhibition of [3H]-SCH- 23390 binding to dopamine receptor D1 rat striatal membrane
# Sequence of D(1A) dopamine receptor (P18901 whole entry): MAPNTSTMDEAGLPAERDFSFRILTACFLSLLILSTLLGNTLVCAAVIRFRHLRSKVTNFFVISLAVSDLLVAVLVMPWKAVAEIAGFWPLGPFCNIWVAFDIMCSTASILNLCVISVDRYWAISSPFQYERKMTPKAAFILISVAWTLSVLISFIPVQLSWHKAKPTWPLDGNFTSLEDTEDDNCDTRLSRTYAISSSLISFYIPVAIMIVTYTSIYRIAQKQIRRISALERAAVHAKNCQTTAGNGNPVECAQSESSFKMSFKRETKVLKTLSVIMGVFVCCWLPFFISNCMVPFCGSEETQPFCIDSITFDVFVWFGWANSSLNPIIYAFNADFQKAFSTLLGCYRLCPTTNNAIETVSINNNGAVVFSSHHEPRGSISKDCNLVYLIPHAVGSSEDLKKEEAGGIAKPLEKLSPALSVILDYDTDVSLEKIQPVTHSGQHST
# Rattus norvegicus = organism: Rattus norvegicus; test: Value was obtained against serotonin-induced (5-HT2A) contractions in rat aorta rings; conditions: read-out: pA2 (converted)
# D(2) dopamine receptor = D(2) dopamine receptor (Rattus norvegicus, UniProt P61169); test: Inhibition of [3H]-spiperone […] binding to dopamine receptor D2 rat striatal membrane
# Sequence of D(2) dopamine receptor (P61169 whole entry): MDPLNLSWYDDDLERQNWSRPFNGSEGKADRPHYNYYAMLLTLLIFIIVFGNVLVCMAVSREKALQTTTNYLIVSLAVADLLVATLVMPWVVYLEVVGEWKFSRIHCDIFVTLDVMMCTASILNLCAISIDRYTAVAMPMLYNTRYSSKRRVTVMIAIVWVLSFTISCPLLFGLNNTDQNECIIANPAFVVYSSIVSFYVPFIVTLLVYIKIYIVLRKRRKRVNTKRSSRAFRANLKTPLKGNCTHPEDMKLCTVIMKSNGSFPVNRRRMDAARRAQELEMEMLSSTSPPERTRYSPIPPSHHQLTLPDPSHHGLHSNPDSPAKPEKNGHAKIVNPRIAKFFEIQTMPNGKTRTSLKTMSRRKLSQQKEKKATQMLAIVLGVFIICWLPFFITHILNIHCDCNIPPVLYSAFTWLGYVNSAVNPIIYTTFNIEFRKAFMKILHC
# Sequence of 5-hydroxytryptamine receptor 2A (P14842 whole entry): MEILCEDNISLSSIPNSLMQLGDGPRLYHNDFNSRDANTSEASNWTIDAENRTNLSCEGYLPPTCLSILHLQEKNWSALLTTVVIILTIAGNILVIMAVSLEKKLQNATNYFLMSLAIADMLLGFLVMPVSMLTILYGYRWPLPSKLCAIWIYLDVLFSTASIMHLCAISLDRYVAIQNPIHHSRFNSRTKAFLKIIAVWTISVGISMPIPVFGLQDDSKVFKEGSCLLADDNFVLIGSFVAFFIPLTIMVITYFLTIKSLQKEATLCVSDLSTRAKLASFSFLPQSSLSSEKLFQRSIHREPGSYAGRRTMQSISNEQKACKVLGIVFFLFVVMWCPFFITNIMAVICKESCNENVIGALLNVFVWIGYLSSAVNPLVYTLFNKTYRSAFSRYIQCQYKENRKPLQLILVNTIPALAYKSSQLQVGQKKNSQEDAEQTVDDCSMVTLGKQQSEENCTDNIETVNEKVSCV
SMILES,Ki [1] [nM],Ki (D(1A) dopamine receptor) [nM],Kb (Rattus norvegicus) [nM],Ki (D(2) dopamine receptor) [nM]
O=C(c1ccc(F)cc1)C1CCN(CCC2CCCc3ccccc3C2=O)CC1 (stereo not drawn),12.9,1290,178,–
O=C(c1ccc(F)cc1)C1CCN(CCC2Cc3cc(F)ccc3C2=O)CC1 (stereo not drawn),3.8,1100,7.59,47.9
O=C(c1ccc(F)cc1)C1CCN(CCC2Cc3ccccc3C2=O)CC1 (stereo not drawn),2.51,2820,7.59,–
O=C(c1ccc(F)cc1)C1CCN(CCC2CCc3ccccc3C2=O)CC1 (stereo not drawn),7.76,1550,35.5,–
